Consider one molecule from paper PMC11845477, “Exploring the principles behind antibiotics with limited resistance” (Nature Communications, 2025).

Each structure is given as a SMILES string.

The test system of experiment [1] is E. coli BW25113-ΔacrB. Description: AcrAB-TolC efflux deficiency screen, relative MIC. The class given is cell-based, Escherichia coli. The note with it: ΔacrB vs wild-type. How it is done: Fig. 6 The impact of AcrAB-TolC activity on antibiotic susceptibility. E. coli strains with AcrAB-TolC depletion (BW25113-ΔacrB) and overexpression (BW25113: pUCacrAB) were treated with various antibiotics, and the level of resistance was determined as minimum inhibitory concentration (MIC) relative to a wild-type strain, presented on a logarithmic scale (log2). Each bar represents the mean resistance level (susceptibility, i.e., level of resistance < 0; and resistance, i.e., level of resistance > 0) to antibiotics induced by acrAB overexpression (blue bars; E. coli with a multicopy plasmid of the acrAB genes (pUCacrAB)) and acrB deletion (red bars; mutant E. coli with acrB gene deletion (ΔacrB)) compared to the wild-type. Data are presented as mean values of 3 biological replicates ± SD. […] Detailed information on antibiotic and bacterial strain abbreviations is provided in Supplementary Data 1. Source data are provided as a Source Data file. For information on mode of action groups, refer to Table 1.
For the efflux deficiency screen, the ΔacrB mutant of E. coli K12 BW25113[86] and its equivalent wild-type control strain with intact gene were utilized. In contrast, BW25113 carrying a multicopy acrAB plasmid (pUCacrAB)[87] and its control strain harboring an empty pUC118 plasmid were used to overexpress the acrAB efflux system. According to established protocols via P1 transduction, the suitable acrB deletion mutant (ΔacrB BW25113) was created, while the pUCacrAB plasmid was kindly provided by Kunihiko Nishino and Akihito Yamaguchi (Osaka University, Osaka, Japan). In a prior study, both strains were employed. Since the copy number of the plasmid carrying the efflux pump is controlled by native promoters, external induction is unnecessary.
Antibiotic susceptibilities of these strains were evaluated using a modified version of the standard broth dilution method. In 96-well microtiter plates containing fresh MHB medium, or supplemented MS medium in case of SCH79797, ten-step serial dilutions of an antibiotic from a stock solution were made (2 wells per antibiotic concentration per strain). The two wells contained only supplemented media without any antibiotics […]. Strains were incubated overnight at 37 °C with continuous agitation. Additionally, plasmid containing strains were grown in the presence of 100 µg/mL ampicillin. The culture was diluted to yield a cell suspension with 5 ×10^5 cells/mL and then inoculated into the wells of the microtiter plate. To determine the medium’s background OD value, the first column of the 96-well plate contained solely MHB without inoculum. Prior to the measurement, the plates were incubated at 37 °C with continuous shaking at 900 rpm with 3 mm throw. OD600 values were determined in a microplate reader after 18 hours of incubation (Biotek Synergy 2). The minimum inhibitory concentration (MIC) was determined as the lowest concentration of antibiotic at which the OD600 values were less than 0.05 after subtracting the background value. The log2 of the relative MIC was computed using the following equation:2 log2relativeMICpUCacrAB=MICpUCacrAB/MICpUC118 3 log2relativeMICΔacrB=MICΔacrB/MICwt

Experiment [2] has as its system E. coli ATCC 25922 (SEN) and E. coli NCTC13846 (MDR). Description: microbe, parasite or virus in culture. Format: cell-based, Escherichia coli. The note with it: for MIC: Escherichia coli, across three biological replicates. In outline:
(§1)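 Cation-adj. MHB2 (not for SCH79797); 11–16-step dilution series; 5 × 10^5 cells/mL; 37 °C, shaking, 18 h; duplicates. Growth by OD600; MIC at OD600 < 0.05. Relative MIC: evolved vs ancestor.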

In experiment [3] the test system is K. pneumoniae ATCC 10031 (SEN) and K. pneumoniae ATCC 700603 (MDR). Description: microbe, parasite or virus in culture. The class given is cell-based, Klebsiella pneumoniae. The note with it: for MIC: Klebsiella pneumoniae, across three biological replicates. An outline of the steps: as §1
The subject of experiment [4] is P. aeruginosa ATCC BAA-3107 (SEN) and P. aeruginosa LESB58 (MDR). Description: microbe, parasite or virus in culture. The class given is cell-based, Pseudomonas aeruginosa. To be noted: for MIC: Pseudomonas aeruginosa, across three biological replicates. In outline:
as §1

Regarding `O=c1ccc2ncc(=O)n3c2n1C[C@H]3CN1CCC(NCc2cc3c(cn2)OCCC3)CC1` [Gepotidacin], the “Relative MIC (log2)” value in experiment [1] (replicate 1), in experiment [1] (replicate 2) and in experiment [1] (replicate 3) was -4 in each case. For the same molecule, the MIC of ancestor stood at 2 µg/mL in experiment [2] (E. coli NCTC 13846 (EC-MDR), ancestor strain, sheet fig 2a); 2 µg/mL in experiment [2] (EC-MDR, Escherichia coli NCTC 13846, ancestor strain); 1 µg/mL in experiment [2] (EC-SEN, Escherichia coli ATCC 25922, ancestor strain); 1 µg/mL in experiment [2] (Escherichia coli ATCC 25922 (EC-SEN), ancestor strain, sheet fig 2a); 0.125 µg/mL in experiment [3] (KP-SEN, Klebsiella pneumoniae ATCC 10031, ancestor strain); 0.125 µg/mL in experiment [3] (Klebsiella pneumoniae ATCC 10031 (KP-SEN), ancestor strain, sheet fig 2a). The MIC of ancestor in experiment [4] (P. aeruginosa ATCC BAA 3107 (PA-SEN), ancestor strain, sheet fig 2a) came to 4 µg/mL; in experiment [4] (P. aeruginosa LESB 58 (PA-MDR), ancestor strain, sheet fig 2a), 4 µg/mL; in experiment [4] (PA-MDR, Pseudomonas aeruginosa LESB 58, ancestor strain), 4 µg/mL; in experiment [4] (PA-SEN, Pseudomonas aeruginosa ATCC BAA 3107, ancestor strain), 4 µg/mL. For the same molecule, the MIC was determined as 1 µg/mL in experiment [2] (Escherichia coli ATCC 25922 (EC-SEN)); 2 µg/mL in experiment [2] (Escherichia coli NCTC 13846 (EC-MDR)); 0.125 µg/mL in experiment [3] (Klebsiella pneumoniae ATCC 10031 (KP-SEN)); 16 µg/mL in experiment [3] (Klebsiella pneumoniae ATCC 700603 (KP-MDR)); 4 µg/mL in experiment [4] (ATCCBAA3107, Pseudomonas aeruginosa ATCC BAA-3107 (PA-SEN)); 4 µg/mL in experiment [4] (ATCCBAA3107, Pseudomonas aeruginosa LESB 58 (PA-MDR)).
